In ChEMBL document CHEMBL4000185, “Pyrimidine-Based Inhibitors of Dynamin I GTPase Activity: Competitive Inhibition at the Pleckstrin Homology Domain” (J Med Chem, 2017):
Activity calls are given as the source filed them. The calls are words filed in the database; no cut-off is given here.

Assays:
[1] = Inhibition of phosphatidyl serine liposome-stimulated sheep brain dynamin 1 GTPase activity assessed as reduction orthophosphate release using GTP as substrate after 30 mins by malachite green reagent based colorimetric assay; design: species or system Ovis aries; settings: read-out: IC50
Ovis aries [2] = species: Ovis aries; test: Inhibition of phosphatidyl serine liposome-stimulated sheep brain dynamin 1 GTPase activity assessed as reduction orthophosphate release up to 300 uM using GTP as substrate after 30 mins by malachite green reagent based colorimetric assay relative to control
Ovis aries [3] = species: Ovis aries; test: Inhibition of phosphatidyl serine liposome-stimulated sheep brain dynamin 1 GTPase activity assessed as reduction orthophosphate release at 300 uM using GTP as substrate after 30 mins by malachite green reagent based colorimetric assay relative to control

Structure (SMILES)	IC50 [1]	inhibition (Ovis aries [2])	other results
CCCCCCCCCCNc1nccc(NCCN(C)C)n1	44.9 µM		
Cc1cc(NC2CCCCC2)nc(Cl)n1		inactive	
CCCCCCNc1nc(C)cc(NCCN(C)C)n1	5.8 µM		
CCCCCCCCCCNc1ccnc(NCCN(C)C)n1	2.9 µM		
Cc1cc(NCCN(C)C)nc(NC2CCCCC2)n1	3.8 µM		
Cc1cc(N2CCN(C)CC2)nc(Cl)n1		inactive	
Cc1cc(Cl)nc(NCc2ccccc2)n1		inactive	
CCCCCCCCCCCCNc1cc(NCCN(C)C)ncn1	7.7 µM		
CCCNc1nc(C)cc(Cl)n1		inactive	
CCCCCCCCCCNc1cc(C)nc(NCCN(C)C)n1	3.8 µM		
CCCCCCCCCCCCNc1nc(C)cc(NCCN)n1	18.6 µM		
CCCNc1nc(C)cc(NCCN(C)C)n1			inhibition (Ovis aries [3]): inactive
CCCCCCCCCCCCNc1nc(C)cc(NCCCN(C)C)n1	37.7 µM		
CCCCCCCCCCCCNc1cc(C)nc(NCCO)n1	4.6 µM		
CCCCCCCCNc1cc(C)nc(NCCN(C)C)n1	1.6 µM		
CCNc1cc(C)nc(NCCN(C)C)n1			inhibition (Ovis aries [3]): inactive
CCNc1nc(C)cc(Cl)n1		inactive	
CCNc1nc(C)cc(NCCN(C)C)n1			inhibition (Ovis aries [3]): inactive
CCCCCCCCCCCCNc1nccc(NCCN(C)C)n1	2 µM		
Cc1cc(Cl)nc(N2CCN(C)CC2)n1		inactive	
CCCNc1cc(C)nc(NCCN(C)C)n1			inhibition (Ovis aries [3]): inactive

Further lines, with some results ahead:

IC50 [1]	inhibition (Ovis aries [2])	Structure (SMILES)	other results
32.5 µM		CCCCCCCCCCCCNc1cc(C)nc(Cl)n1	
	inactive	CCCNc1cc(C)nc(Cl)n1	
	inactive	CCCCCCCCNc1nc(C)cc(Cl)n1	
	inactive	CCCCCCNc1nc(C)cc(Cl)n1	
5.2 µM		CCCCCCCCCCN(CCCCCCCCCC)c1nc(C)cc(CCN(C)C)n1	
	inactive	COc1ccc(CNc2nc(C)cc(Cl)n2)cc1	
4.4 µM		CCCCCCCCCCCCCCCCCCNc1nc(C)cc(NCCN(C)C)n1	
	inactive	CCCCNc1cc(C)nc(Cl)n1	
> 50 µM		Cc1cc(NCCN(C)C)nc(NCc2ccccc2)n1	inhibition (Ovis aries [3]): > 50%
7.5 µM		CCCCCCCCCCN(CCCCCCCCCC)c1cc(C)nc(NCCN(C)C)n1	
	inactive	COc1ccc(CNc2cc(C)nc(Cl)n2)cc1	
	inactive	CCC(C)Nc1cc(C)nc(Cl)n1 (stereo not given)	
	inactive	Cc1cc(Cl)nc(NCCN)n1	
	inactive	Cc1cc(NCCCN(C)C)nc(Cl)n1	
	inactive	CCC(C)Nc1nc(C)cc(Cl)n1 (stereo not given)	
5.3 µM		CCCCCCCCCCCCNc1cc(C)nc(NCCN)n1	
	inactive	Cc1cc(N(C)C)nc(Cl)n1	
	inactive	Cc1cc(Cl)nc(NCCNC(=O)OC(C)(C)C)n1	
